These results are taken from patent publication US20120226031A1, “PALMARUMYCIN BASED INHIBITORS OF THIOREDOXIN AND METHODS OF USING SAME” (ARIZONA BOARD OF REGENTS, ACTING ON BEHALF OF THE …, priority 2005, published 2012).

Read-outs that look alike come from different tables or passages of the source. Some results are limits rather than exact numbers.

Data set [1] is described as follows: Stability in fresh mouse plasma at room temperature. It is filed as in vitro ADME. As for the experimental part: (§1) Two metabolite peaks could be seen at 5 minutes, but were undetectable by 30 minutes.
The target of data set [2] is T1, cellular thioredoxin reductase (Homo sapiens, UniProt Q16881).
T1 sequence (Q16881 1-649): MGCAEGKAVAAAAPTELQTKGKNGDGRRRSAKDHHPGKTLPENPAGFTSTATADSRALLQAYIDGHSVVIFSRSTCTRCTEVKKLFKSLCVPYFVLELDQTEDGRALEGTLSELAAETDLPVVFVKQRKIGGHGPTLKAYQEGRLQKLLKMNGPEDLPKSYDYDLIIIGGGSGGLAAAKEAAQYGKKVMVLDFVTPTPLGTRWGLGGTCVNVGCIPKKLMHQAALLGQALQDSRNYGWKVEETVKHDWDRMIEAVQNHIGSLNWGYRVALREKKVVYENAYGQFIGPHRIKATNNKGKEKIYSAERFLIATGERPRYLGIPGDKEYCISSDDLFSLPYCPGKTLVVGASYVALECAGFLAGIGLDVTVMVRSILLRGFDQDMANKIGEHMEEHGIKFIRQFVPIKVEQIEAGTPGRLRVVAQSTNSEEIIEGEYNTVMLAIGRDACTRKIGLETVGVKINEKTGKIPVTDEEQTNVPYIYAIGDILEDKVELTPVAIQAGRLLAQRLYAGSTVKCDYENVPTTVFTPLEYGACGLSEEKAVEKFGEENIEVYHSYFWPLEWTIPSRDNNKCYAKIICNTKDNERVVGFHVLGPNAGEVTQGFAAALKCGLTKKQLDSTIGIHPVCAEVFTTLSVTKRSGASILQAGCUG
Description: Inhibition of cellular thioredoxin reductase in MCF-7 cells grown in 1 μM Se. Type of data set: cell-based. As for the experimental part:
FIG. 3. Inhibition of cellular thioredoxin reductase by PX-916. MCF-7 human breast cancer cells grown in medium containing 1 μM Se for 7 days were treated with PX-916 and total cellular thioredoxin reductase activity measured. A. Time course of the inhibition of the thioredoxin reductase on exposure to 1 μM PX-916. […] In both cases values are the mean of 3 separate determinations and bars are S.E. P≦0.04 or **p≦0.01. C. Inhibition of MCF-7 tumor thioredoxin reductase by PX-916. MCF-7 human breast cancer xenografts were grown in female scid mice implanted with 17-β-estradiol 60 day slow-release pellets until they were ˜300 mm^3. The mice were administered a single dose of PX-916 of 25 mg/kg i.v. and tumors harvested at various times. Thioredoxin reductase activity was measured in tumor homogenates. Values are the mean of 3 mice at each time point and bars are SE. **p<0.01 compared to pretreatment value.
Cell growth inhibition of MCF-7 human breast cancer cells by palmarumycin, PX-916 and PX-960 occurred at similar concentration of 1 to 3 μM (Table 2). MCF-7 human breast cancer cells were grown in medium containing 1 μM selenium (Se) for 7 days which increased cellular thioredoxin reductase activity by about 5 fold as previously reported. […] Thus, inhibition of purified human TR, MCF-7 cellular TR and cell growth inhibition of MCF-7 cells by PX-916 occurred at about the same concentrations.

Data set [3] deals with T2, human thioredoxin reductase (Homo sapiens, UniProt Q16881).
T2 construct: (placenta); from tissue; host or cells: human placenta
T2 sequence (Q16881 151-649 limits assumed): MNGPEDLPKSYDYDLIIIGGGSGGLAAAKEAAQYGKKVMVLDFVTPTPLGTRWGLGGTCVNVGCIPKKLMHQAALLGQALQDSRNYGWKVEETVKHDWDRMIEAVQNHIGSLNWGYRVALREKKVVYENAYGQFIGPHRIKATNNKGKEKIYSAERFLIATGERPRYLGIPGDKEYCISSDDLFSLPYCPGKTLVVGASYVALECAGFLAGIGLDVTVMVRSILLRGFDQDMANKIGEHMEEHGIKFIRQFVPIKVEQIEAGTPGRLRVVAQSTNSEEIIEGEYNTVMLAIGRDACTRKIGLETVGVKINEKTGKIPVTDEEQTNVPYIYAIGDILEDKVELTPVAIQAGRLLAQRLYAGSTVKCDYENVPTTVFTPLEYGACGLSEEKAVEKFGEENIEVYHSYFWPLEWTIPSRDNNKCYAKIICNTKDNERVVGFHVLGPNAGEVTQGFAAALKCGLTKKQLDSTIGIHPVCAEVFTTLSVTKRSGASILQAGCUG
Description: Inhibition of purified human thioredoxin reductase (TrxR/TR). Type of data set: biochemical.

Data set [4] can be described thus: pH dependent stability in water / 0.1M sodium phosphate buffer. Type of data set: physicochemical. The protocol: PX-916 was stable as a stock solution in ethanol at room temperature with a half life of >5 days. […] Therefore, for in vitro studies PX-916 was used as a stock solution in ethanol, and for in vivo studies made fresh in pH 4.0 buffer vehicle.
Further palmarumycin analogs were synthesized and tested. The following analogs were synthesized: eee269-II, eee86-III, eee263-II and eee273-II. The stability of the analogs was measured in various solutions.

A short description of data set [5]: Plasma levels in mice after i.v. administration. It is filed as in vivo, mouse. The settings on record: PX-916 i.v. to mice, 5 minutes after administration. Also noted: dose or concentration left out as unconfirmed. As for the experimental part:
as §1

The term IC50 denotes the concentration that gives 50% inhibition.

With `NCC(=O)Oc1ccc2c3c(cccc13)OC1(C=CC(=O)c3c(O)cccc31)O2` (stereo not shown) [PX-916, O-glycyl naphthoquinone spiroketal], the half-life in data set [1] is below 2 min; in data set [4] (0.1M sodium phosphate buffer, pH 4.0, read-out: half life (converted)), 37 h; in data set [4] (0.1M sodium phosphate buffer, pH 7.0, read-out: half life (converted)), 1 h; in data set [4] (0.1M sodium phosphate buffer, pH 10.0, read-out: half life (converted)), below 1 h; in data set [4] (water, pH 4, room temperature, pH4, read-out: t1/2 in water (converted)), 37 h; in data set [4] (water, pH 7 and above, read-out: t1/2 in water (converted)), below 1 h. For the same compound, in data set [2] (MCF-7 cells exposed to 1 μM), the “time of maximum inhibition of cellular TR” value is 24 h. Besides, the “concentration of maximum inhibition of cellular TR” value in data set [2] (MCF-7 cells, 17 hours exposure) is 0.5 µM. Further, the IC50 in data set [3] (Table 1, read-out: TrxR inhibitory activity IC50) was 280 nM; in data set [3] (Table 2, read-out: Inhibition of human thioredoxin reductase IC50) it was 280 nM; in data set [3] (Table 3, read-out: Inhibition IC50, thioredoxin reductase (placenta)), 280 nM; in data set [3] (read-out: IC50 purified TrxR), 280 nM; in data set [3] (read-out: IC50 purified human TR), 280 nM. The “mode of inhibition of thioredoxin reductase-1” value in data set [3] (in words) was “NADPH and time dependent, apparently, irreversible inhibitor”. Further, the “half life of conversion to PX-960” value in data set [4] (physiological pH) stood at 1 h. Further, the “detection of PX-916 in plasma” value in data set [5] was “could not be detected”.
